Experimental data from article PMC9775652, “Concomitant Administration of Red Ginseng Extract with Lactic Acid Bacteria Increases the Plasma Concentration of Deglycosylated Ginsenosides in Healthy Human Subjects” (Biomolecules, 2022).
“And” between values parts separate entries of the source, which are not always exact repeats. Equal entries are not always repeated. Where two headings read alike, the source gives them in different places.

Legend:
[1] = Pharmacokinetic study of ginsenosides in healthy humans after repeated oral RGE with or without LAB; format: in vivo, human; conditions: for Cmax / MRT / Tmax / AUC: male, in vivo, human plasma, mean ± SD, n = 5; for Cmax: read-out: Cmax; for MRT: read-out: MRT; for Tmax: read-out: Tmax; for AUC: AUC 0 to 24 h, read-out: AUC
[2] = molecular target: T1, P-gp (Homo sapiens, UniProt P08183); experiment: Transport of ginsenosides in P-gp-overexpressing LLC-PK1-P-gp cells; format: in vitro ADME
T1 construct: host or cells: LLC-PK1-P-gp cells (passage no. 25–28)

[3] = cited from earlier work
[4] = 104.1 mg total ginsenosides/day, RGE group, RGE oral 14 days

T1 sequence (P08183 whole entry): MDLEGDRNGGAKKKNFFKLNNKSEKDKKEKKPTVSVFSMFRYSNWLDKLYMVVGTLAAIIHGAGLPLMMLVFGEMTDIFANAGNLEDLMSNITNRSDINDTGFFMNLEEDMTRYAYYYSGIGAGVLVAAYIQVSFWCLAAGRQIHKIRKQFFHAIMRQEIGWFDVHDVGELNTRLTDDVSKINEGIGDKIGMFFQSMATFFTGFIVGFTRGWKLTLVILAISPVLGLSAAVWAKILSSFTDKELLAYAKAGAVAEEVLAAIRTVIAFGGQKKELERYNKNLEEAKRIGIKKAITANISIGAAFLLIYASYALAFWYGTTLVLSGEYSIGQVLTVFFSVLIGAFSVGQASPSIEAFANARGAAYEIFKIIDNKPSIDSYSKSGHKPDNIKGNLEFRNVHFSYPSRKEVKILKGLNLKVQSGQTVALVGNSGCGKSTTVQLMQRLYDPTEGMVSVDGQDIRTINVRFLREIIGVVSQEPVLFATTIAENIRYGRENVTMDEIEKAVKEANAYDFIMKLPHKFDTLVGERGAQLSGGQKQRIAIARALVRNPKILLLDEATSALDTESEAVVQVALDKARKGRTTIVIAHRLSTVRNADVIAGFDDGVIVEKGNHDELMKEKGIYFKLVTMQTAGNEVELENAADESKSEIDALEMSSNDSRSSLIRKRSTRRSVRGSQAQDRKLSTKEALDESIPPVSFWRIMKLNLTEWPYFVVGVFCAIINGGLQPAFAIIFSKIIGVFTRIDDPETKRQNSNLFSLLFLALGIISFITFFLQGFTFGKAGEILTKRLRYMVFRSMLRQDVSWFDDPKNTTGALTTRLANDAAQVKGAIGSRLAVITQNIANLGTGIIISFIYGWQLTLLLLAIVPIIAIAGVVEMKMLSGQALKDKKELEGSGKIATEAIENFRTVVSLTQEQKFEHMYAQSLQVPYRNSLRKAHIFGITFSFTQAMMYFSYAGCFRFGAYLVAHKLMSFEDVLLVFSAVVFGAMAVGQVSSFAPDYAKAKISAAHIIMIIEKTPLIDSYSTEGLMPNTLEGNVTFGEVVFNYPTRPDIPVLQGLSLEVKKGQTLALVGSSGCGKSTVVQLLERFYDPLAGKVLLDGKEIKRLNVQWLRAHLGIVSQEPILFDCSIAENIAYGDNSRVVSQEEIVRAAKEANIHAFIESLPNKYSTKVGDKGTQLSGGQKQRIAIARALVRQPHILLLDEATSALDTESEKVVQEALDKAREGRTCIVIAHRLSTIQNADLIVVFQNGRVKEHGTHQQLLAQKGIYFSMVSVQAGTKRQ

CC(C)=CCC[C@](C)(O)[C@H]1CC[C@]2(C)[C@@H]1[C@H](O)C[C@@H]1[C@@]3(C)CC[C@H](O[C@@H]4O[C@H](CO)[C@@H](O)[C@H](O)[C@H]4O)C(C)(C)[C@@H]3CC[C@]12C [GRh2, ginsenoside Rh2]
Fold increase of plasma AUC after LAB supplementation ([1]; RGE + LAB group compared to RGE group, humans, 2 weeks): 2.1 fold and 2.7 fold
Change of AUC / pharmacokinetic parameters by RGE and LAB co-administration ([1]; RGE + LAB group versus RGE group, humans, result in words): significantly increased
Cmax [1, 4]: 2.1 ± 0.8 ng/mL
MRT [1, 4]: 17 ± 9.3 h
Tmax [1, 4]: 10.7 ± 0.6 h
AUC ([1]; RGE + LAB group, RGE plus LAB (1 billion CFU/2 g) once daily oral 14 days): 57.1 ± 22 ng·h/mL
Cmax ([1]; RGE + LAB group, oral 14 days): 13.9 ± 12.8 ng/mL
MRT ([1]; RGE + LAB group, oral 14 days): 10.2 ± 1.6 h
Tmax ([1]; RGE + LAB group, oral 14 days): 10.6 ± 1.8 h
AUC ([1]; RGE group, RGE once daily oral 14 days (104.1 mg total ginsenosides/day)): 21.3 ± 10.1 ng·h/mL
CLint (intrinsic clearance) ([2]; P-gp-mediated B to A transport in LLC-PK1-P-gp cells): 502 µL/min
efflux ratio at 20 μM ([2]; pig, LLC-PK1, LLC-PK1-P-gp cells, 20 μM, B to A Papp divided by A to B Papp, read-out: ER): 18
Papp A→B at 20 μM ([2]; pig, LLC-PK1-P-gp cells, 20 μM, mean ± SD, n = 3, read-out: A to B permeability): 0.08 ± 0.01 ×10⁻⁶ cm/s
Papp B→A at 20 μM ([2]; pig, LLC-PK1-P-gp cells, 20 μM, mean ± SD, n = 3, read-out: B to A permeability): 1.39 ± 0.13 ×10⁻⁶ cm/s
Oral BA [3]: 5%
